Laboratory results published in PubChem BioAssay (NCI).
“And” between values parts separate entries of the source, which are not always exact repeats. Identical values can stand only once.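 Protocol summary: plate cells (96-well), add compound at 5 concentrations, incubate 48 h, interpolate endpoints linearly. GI50 is the concentration that inhibits growth by half. TGI marks complete inhibition of growth.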

Assays:
Test in all cases: inhibition of tumour cell growth, NCI panel, 48 h
SF-295 CNS = test system: SF-295 CNS
UACC-62 melanoma = test system: UACC-62 melanoma
A498 renal = test system: A498 renal
HT29 colon = test system: HT29 colon
CAKI-1 renal = test system: CAKI-1 renal
OVCAR-4 ovarian = test system: OVCAR-4 ovarian
NCI-H460 lung = test system: NCI-H460 lung
SF-268 CNS = test system: SF-268 CNS
TK-10 renal = test system: TK-10 renal
SK-MEL-2 melanoma = test system: SK-MEL-2 melanoma
HCT-15 colon = test system: HCT-15 colon
A549 NSCLC = test system: A549 NSCLC
HCT-116 colon = test system: HCT-116 colon
HCC-2998 colon = test system: HCC-2998 colon
UACC-257 melanoma = test system: UACC-257 melanoma
786-0 renal = test system: 786-0 renal
HL-60(TB) leukemia = test system: HL-60(TB) leukemia
SK-MEL-28 melanoma = test system: SK-MEL-28 melanoma
NCI/ADR-RES ovarian = test system: NCI/ADR-RES ovarian
SNB-19 CNS = test system: SNB-19 CNS
SF-539 CNS = test system: SF-539 CNS
IGROV1 ovarian = test system: IGROV1 ovarian
HOP-62 NSCLC = test system: HOP-62 NSCLC
SN12C renal = test system: SN12C renal
EKVX NSCLC = test system: EKVX NSCLC
MALME-3M melanoma = test system: MALME-3M melanoma
SW-620 colon = test system: SW-620 colon
RPMI-8226 leukemia = test system: RPMI-8226 leukemia
U251 CNS = test system: U251 CNS

## COc1cc(OC)cc(N2CCN(C(=O)Nc3nc4cc(F)ccc4nc3OC)CC2)c1
SF-295 CNS
  GI50: < 18.4 nM and 25.5 nM
  TGI: 20600 nM
UACC-62 melanoma
  GI50: < 10 nM and 14.2 nM
  TGI: 27200 nM and 21900 nM
A498 renal
  GI50: < 16.4 nM and 12.6 nM
HT29 colon
  GI50: 34.3 nM and 37.2 nM and 30.6 nM
CAKI-1 renal
  GI50: 40.1 nM and 34 nM
  TGI: > 100000 nM
OVCAR-4 ovarian
  TGI: 84800 nM and > 100000 nM
NCI-H460 lung
  GI50: 32.3 nM and 35.8 nM and 33.9 nM
  TGI: 25300 nM and 14900 nM
SF-268 CNS
  GI50: 91.2 nM and 94 nM and 66.1 nM
  TGI: 75700 nM and 34100 nM
TK-10 renal
  GI50: 16600 nM and 10300 nM
  TGI: 71600 nM and 63800 nM
SK-MEL-2 melanoma
  GI50: 277 nM and 66.6 nM and 30.6 nM
  TGI: 29100 nM and 10800 nM
HCT-15 colon
  GI50: 31.8 nM and 34.6 nM and 34 nM
  TGI: > 100000 nM
A549 NSCLC
  GI50: 36.7 nM and 44.9 nM and 35.7 nM
  TGI: > 100000 nM
HCT-116 colon
  GI50: 38.1 nM and 33.2 nM and 33.4 nM
  TGI: 1540 nM and 214 nM
HCC-2998 colon
  GI50: 44.5 nM and 37.7 nM and 38.1 nM
  TGI: 31400 nM and 27100 nM
UACC-257 melanoma
  GI50: 20100 nM and 12700 nM
  TGI: 73400 nM and 56800 nM
786-0 renal
  GI50: 48.7 nM and 46 nM and 36.2 nM
  TGI: 31000 nM and 22100 nM
HL-60(TB) leukemia
  GI50: 22.6 nM and 29.9 nM and 26.1 nM
SK-MEL-28 melanoma
  GI50: 10900 nM and 6920 nM
  TGI: 74900 nM and 37000 nM
NCI/ADR-RES ovarian
  GI50: < 14.8 nM and 27.4 nM and 12 nM
  TGI: 45000 nM and 28800 nM
SNB-19 CNS
  GI50: 41.8 nM and 45 nM and 43.1 nM
  TGI: > 95900 nM and 40300 nM
SF-539 CNS
  GI50: 19.5 nM and 22.8 nM and 13.6 nM
IGROV1 ovarian
  GI50: 44.1 nM and 98.8 nM and 62 nM
  TGI: 32300 nM and 39500 nM
HOP-62 NSCLC
  GI50: 34.6 nM and 57.3 nM and 51 nM
  TGI: 58700 nM and 25200 nM
SN12C renal
  GI50: 67 nM and 61.5 nM and 57.6 nM
  TGI: 51100 nM and 24500 nM
EKVX NSCLC
  GI50: 54.3 nM and 345 nM and 63.6 nM
  TGI: > 87100 nM and 66600 nM
MALME-3M melanoma
  GI50: 5450 nM and 12500 nM
  TGI: 46800 nM and 44800 nM
SW-620 colon
  GI50: 28.3 nM and 37.2 nM and 39.5 nM
  TGI: > 100000 nM
RPMI-8226 leukemia
  GI50: < 18.2 nM and 38.6 nM and 41.6 nM
  TGI: 13800 nM and 20000 nM
U251 CNS
  GI50: 35.6 nM and 44.8 nM and 42.8 nM
  TGI: 27300 nM and 20200 nM
